Measured values taken from patent publication US11447466B2, “Substituted indole compounds useful as inhibitors of TLR7/8/9” (BRISTOL-MYERS SQUIBB COMPANY, priority 2017, dated 2022).

Assays:
Format in all cases: cell-based
human TLR7 = target: T1, human TLR7 (Homo sapiens, UniProt Q9NYK1); experiment: TLR7 inhibition reporter assay (HEK-Blue SEAP reporter, gardiquimod stimulation); conditions: HEK-Blue cells overexpressing human TLR7, SEAP reporter, gardiquimod 7.5 μM, 22 hour incubation
T1 construct: host or cells: HEK-Blue cells
T1 sequence (Q9NYK1 27-1049): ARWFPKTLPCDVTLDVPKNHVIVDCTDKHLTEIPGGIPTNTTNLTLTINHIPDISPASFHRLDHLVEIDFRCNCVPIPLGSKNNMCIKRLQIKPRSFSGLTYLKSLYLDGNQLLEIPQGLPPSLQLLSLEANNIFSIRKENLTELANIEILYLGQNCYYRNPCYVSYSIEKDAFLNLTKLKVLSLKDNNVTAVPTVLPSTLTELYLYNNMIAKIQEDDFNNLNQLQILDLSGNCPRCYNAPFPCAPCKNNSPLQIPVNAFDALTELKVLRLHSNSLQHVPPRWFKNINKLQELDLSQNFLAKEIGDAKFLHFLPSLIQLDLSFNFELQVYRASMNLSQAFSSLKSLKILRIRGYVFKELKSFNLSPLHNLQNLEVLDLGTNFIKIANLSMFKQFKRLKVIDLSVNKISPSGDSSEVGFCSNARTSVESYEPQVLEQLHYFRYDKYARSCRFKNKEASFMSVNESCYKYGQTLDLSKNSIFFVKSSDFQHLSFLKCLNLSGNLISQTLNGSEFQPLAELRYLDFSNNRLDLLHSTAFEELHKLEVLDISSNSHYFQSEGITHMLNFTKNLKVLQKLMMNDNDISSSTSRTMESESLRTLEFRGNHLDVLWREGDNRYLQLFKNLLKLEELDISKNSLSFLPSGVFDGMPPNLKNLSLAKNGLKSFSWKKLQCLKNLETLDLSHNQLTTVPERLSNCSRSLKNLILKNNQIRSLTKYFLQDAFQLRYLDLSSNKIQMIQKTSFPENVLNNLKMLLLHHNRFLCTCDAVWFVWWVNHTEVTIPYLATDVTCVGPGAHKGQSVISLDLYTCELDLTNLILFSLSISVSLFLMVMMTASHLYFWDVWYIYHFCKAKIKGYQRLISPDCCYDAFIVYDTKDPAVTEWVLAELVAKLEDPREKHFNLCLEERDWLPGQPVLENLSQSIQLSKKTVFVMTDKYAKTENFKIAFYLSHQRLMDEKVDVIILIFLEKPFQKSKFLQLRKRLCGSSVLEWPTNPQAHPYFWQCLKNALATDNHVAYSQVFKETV
In short: (§1)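 Screening used HEK-Blue cells overexpressing one human TLR (7, 8 or 9) and an IFN-β minimal promoter–NF-κB/AP-1 SEAP construct. Stimulation lasted 22 h at 37 °C with receptor-specific agonist: gardiquimod, R848 or ODN2006 at 7.5 μM, 15.9 μM and 5 nM.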

human TLR8 = target: T2, human TLR8 (Homo sapiens, UniProt Q9NR97); experiment: TLR8 inhibition reporter assay (HEK-Blue SEAP reporter, R848 stimulation); conditions: HEK-Blue cells overexpressing human TLR8, SEAP reporter, R848 15.9 μM, 22 hour incubation
T2 construct: host or cells: HEK-Blue cells
T2 sequence (Q9NR97 27-1041): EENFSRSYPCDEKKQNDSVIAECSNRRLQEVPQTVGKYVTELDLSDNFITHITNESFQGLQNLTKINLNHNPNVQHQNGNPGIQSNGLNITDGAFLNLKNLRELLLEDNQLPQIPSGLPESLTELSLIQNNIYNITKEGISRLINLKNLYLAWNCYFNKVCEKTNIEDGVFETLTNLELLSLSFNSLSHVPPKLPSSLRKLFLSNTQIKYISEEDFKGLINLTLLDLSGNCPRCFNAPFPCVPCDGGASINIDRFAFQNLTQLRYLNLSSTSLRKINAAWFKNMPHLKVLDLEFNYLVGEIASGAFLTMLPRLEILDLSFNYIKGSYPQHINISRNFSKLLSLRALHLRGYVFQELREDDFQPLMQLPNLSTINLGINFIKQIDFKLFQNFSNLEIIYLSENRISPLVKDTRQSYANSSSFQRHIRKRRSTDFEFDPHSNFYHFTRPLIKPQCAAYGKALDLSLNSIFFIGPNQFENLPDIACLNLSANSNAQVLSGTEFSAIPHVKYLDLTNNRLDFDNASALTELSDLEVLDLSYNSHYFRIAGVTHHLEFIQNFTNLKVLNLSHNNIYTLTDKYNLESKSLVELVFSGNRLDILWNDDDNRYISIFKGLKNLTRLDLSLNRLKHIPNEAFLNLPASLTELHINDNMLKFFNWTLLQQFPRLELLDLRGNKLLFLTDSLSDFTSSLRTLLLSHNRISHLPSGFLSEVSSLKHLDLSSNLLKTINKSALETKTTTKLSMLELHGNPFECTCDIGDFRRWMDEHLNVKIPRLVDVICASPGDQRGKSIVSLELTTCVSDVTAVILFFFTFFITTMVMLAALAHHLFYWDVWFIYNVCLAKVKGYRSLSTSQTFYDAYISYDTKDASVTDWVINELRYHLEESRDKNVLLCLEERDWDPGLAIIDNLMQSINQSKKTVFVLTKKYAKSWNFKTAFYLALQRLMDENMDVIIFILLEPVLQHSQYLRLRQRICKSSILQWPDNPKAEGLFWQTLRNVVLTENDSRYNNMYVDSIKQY
In short: as §1

human TLR9 = target: T3, human TLR9 (Homo sapiens, UniProt Q9NR96); experiment: TLR9 inhibition reporter assay (HEK-Blue SEAP reporter, ODN2006 stimulation); conditions: HEK-Blue cells overexpressing human TLR9, SEAP reporter, ODN2006 5 nM, 22 hour incubation
T3 construct: host or cells: HEK-Blue cells
T3 sequence (Q9NR96 26-1032): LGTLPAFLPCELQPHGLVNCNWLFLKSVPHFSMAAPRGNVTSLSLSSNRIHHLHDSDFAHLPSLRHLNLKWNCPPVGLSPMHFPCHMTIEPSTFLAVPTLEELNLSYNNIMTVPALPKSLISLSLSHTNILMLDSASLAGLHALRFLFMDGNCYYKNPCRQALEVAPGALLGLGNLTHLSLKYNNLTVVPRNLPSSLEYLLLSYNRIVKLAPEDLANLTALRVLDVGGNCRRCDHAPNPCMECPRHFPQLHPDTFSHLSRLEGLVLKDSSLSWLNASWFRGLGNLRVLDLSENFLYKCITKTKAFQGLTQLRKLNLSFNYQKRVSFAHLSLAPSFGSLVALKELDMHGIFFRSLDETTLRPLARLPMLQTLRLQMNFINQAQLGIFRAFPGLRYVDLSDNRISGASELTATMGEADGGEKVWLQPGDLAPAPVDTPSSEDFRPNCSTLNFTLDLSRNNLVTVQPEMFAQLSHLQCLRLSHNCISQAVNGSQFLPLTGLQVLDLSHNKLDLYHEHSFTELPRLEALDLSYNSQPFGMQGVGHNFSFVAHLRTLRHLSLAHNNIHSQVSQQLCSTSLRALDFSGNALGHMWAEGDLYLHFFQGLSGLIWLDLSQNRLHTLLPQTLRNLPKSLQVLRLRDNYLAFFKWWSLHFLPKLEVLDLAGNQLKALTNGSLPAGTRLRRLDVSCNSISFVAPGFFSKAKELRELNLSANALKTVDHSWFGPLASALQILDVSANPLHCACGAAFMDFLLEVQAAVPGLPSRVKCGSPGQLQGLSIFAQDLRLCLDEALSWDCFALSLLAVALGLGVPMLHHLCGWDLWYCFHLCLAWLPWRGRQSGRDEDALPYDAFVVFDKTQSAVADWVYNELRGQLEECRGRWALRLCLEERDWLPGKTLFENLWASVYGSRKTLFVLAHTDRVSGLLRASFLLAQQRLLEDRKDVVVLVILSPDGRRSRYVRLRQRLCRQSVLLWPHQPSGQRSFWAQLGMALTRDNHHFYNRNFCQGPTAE
In short: as §1

IC50 (human TLR7) [nM] | IC50 (human TLR8) [nM] | IC50 (human TLR9) [µM] | Compound
4.5 | 1.1 | 0.832 | CCCN1CCC(c2ccc3[nH]c(-c4cc(-c5cncnc5)c(=O)n(C)c4)c(C(C)C)c3c2F)CC1 [Example 258, 5-(4-fluoro-3-isopropyl-5-(1-propylpiperidin-4-yl)-1H-indol-2-yl)-1-methyl-3-(pyrimidin-5-yl)pyridin-2(1H)-one]
6.1 | 0.6 | 0.983 | CC(C)c1c(-c2cc(-c3cncnc3)c(=O)n(C)c2)[nH]c2ccc(C3CCN(CC4CCOC4)CC3)c(F)c12 (stereo not drawn) [Example 259, 5-(4-fluoro-3-isopropyl-5-(1-((tetrahydrofuran-3-yl)methyl)piperidin-4-yl)-1H-indol-2-yl)-1-methyl-3-(pyrimidin-5-yl)pyridin-2(1H)-one]
23.2 | 3.1 | 2.24 | CCCN1CCC(c2ccc3[nH]c(-c4cc(-c5cncnc5)c(=O)n(CC)c4)c(C(C)C)c3c2)CC1 [Example 260, 1-ethyl-5-(3-isopropyl-5-(1-propylpiperidin-4-yl)-1H-indol-2-yl)-3-(pyrimidin-5-yl)pyridin-2(1H)-one]
8.8 | 7.1 | 3.36 | COCCn1cc(-c2[nH]c3ccc(C4CCN(C5CCOCC5)CC4)cc3c2C(C)C)cc(C)c1=O [Example 261, 5-(3-isopropyl-5-(1-(tetrahydro-2H-pyran-4-yl)piperidin-4-yl)-1H-indol-2-yl)-1-(2-methoxyethyl)-3-methylpyridin-2(1H)-one]
47.7 | 52.3 | 2.12 | Cc1cc(-c2[nH]c3ccc(C4CCN(C5CCOCC5)CC4)cc3c2C(C)C)cn(CC(C)C)c1=O [Example 262, 1-isobutyl-5-(3-isopropyl-5-(1-(tetrahydro-2H-pyran-4-yl)piperidin-4-yl)-1H-indol-2-yl)-3-methylpyridin-2(1H)-one]
10.8 | 24.1 | 1.56 | Cc1cc(-c2[nH]c3ccc(C4CCN(C5CCOCC5)CC4)cc3c2C(C)C)cn(Cc2ccccc2)c1=O [Example 263, 1-benzyl-5-(3-isopropyl-5-(1-(tetrahydro-2H-pyran-4-yl)piperidin-4-yl)-1H-indol-2-yl)-3-methylpyridin-2(1H)-one]
13.5 | 927 | 6.09 | Cc1cc(-c2[nH]c3ccc(C4CCN(C)CC4)cc3c2C(C)C)cn(CCO)c1=O [Example 264, 1-(2-hydroxyethyl)-5-(3-isopropyl-5-(1-methylpiperidin-4-yl)-1H-indol-2-yl)-3-methylpyridin-2(1H)-one]
20.1 | 42.6 | 5.03 | Cc1cc(-c2[nH]c3ccc(C4CCN(C)CC4)cc3c2C(C)C)cn(CC(F)(F)F)c1=O [Example 265, 5-(3-isopropyl-5-(1-methylpiperidin-4-yl)-1H-indol-2-yl)-3-methyl-1-(2,2,2-trifluoroethyl)pyridin-2(1H)-one]
11.6 | 15.8 | 4.48 | Cc1cc(-c2[nH]c3ccc(C4CCN(C)CC4)cc3c2C(C)C)cn(CC(F)F)c1=O [Example 266, 1-(2,2-difluoroethyl)-5-(3-isopropyl-5-(1-methylpiperidin-4-yl)-1H-indol-2-yl)-3-methylpyridin-2(1H)-one]
2.2 | 6.6 | 3.54 | Cc1cc(-c2[nH]c3ccc(C4CCN(C5CCC(C(C)(C)O)CC5)CC4)cc3c2C(C)C)cn(C)c1=O (stereo not drawn) [Example 267, 5-(5-(1-(4-(2-hydroxypropan-2-yl)cyclohexyl)piperidin-4-yl)-3-isopropyl-1H-indol-2-yl)-1,3-dimethylpyridin-2(1H)-one]
2.4 | 6.6 | 2.63 | Cc1cc(-c2[nH]c3ccc(C4CCN(C5CCC(C(C)(C)O)CC5)CC4)cc3c2C(C)C)cn(C)c1=O (stereo not drawn) [Example 268, 5-(5-(1-(4-(2-hydroxypropan-2-yl)cyclohexyl)piperidin-4-yl)-3-isopropyl-1H-indol-2-yl)-1,3-dimethylpyridin-2(1H)-one]
35.5 | 4.6 | 5.9 | Cc1cc(-c2[nH]c3ccc(C4CCN(C(C)c5cnn(C)c5)CC4)cc3c2C(C)C)cn(C)c1=O (stereo not drawn) [Example 269, 5-(3-isopropyl-5-(1-(1-(1-methyl-1H-pyrazol-4-yl)ethyl)piperidin-4-yl)-1H-indol-2-yl)-1,3-dimethylpyridin-2(1H)-one]
2.1 | 4.7 | 4.16 | Cc1cc(-c2[nH]c3ccc(C4CCN(C5CCC(C(C)(C)O)CC5)CC4)cc3c2C(C)C)cn(C)c1=O (stereo not drawn) [Example 270, 5-(5-(1-(4-(2-hydroxypropan-2-yl)cyclohexyl)piperidin-4-yl)-3-isopropyl-1H-indol-2-yl)-1,3-dimethylpyridin-2(1H)-one]
